Publication PMC9913288, “Suppression of Cancer Cell Stemness and Drug Resistance via MYC Destabilization by Deubiquitinase USP45 Inhibition with a Natural Small Molecule” (Cancers, 2023)

Molecular target: T1, USP45 (Homo sapiens, UniProt Q70EL2)
T1 construct: USP45-His purified from E. coli BL21, biotinylated
T1 sequence (Q70EL2 1-814): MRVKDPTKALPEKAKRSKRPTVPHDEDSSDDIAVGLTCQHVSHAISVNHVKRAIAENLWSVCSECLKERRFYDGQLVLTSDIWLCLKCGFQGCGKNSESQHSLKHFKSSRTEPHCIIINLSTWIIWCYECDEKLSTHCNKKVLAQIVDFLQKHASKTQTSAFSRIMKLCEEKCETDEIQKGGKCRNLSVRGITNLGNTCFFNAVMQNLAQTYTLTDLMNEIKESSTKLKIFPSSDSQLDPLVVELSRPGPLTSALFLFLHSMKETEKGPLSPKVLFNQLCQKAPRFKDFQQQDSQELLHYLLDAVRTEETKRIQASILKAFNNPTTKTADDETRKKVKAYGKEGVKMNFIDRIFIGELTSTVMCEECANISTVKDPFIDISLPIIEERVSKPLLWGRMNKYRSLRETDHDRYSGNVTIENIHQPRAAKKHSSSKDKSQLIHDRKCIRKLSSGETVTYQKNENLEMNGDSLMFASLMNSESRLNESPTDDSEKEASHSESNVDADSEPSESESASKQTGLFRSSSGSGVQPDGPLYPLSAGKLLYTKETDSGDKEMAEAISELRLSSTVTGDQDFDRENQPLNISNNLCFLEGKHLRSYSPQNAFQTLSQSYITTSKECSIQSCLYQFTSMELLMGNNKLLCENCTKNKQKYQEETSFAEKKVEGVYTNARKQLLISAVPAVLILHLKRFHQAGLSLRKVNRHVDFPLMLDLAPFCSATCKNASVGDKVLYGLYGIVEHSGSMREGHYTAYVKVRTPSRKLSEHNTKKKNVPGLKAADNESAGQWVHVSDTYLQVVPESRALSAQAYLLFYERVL
Assay: BLI (OCTET K2) with purified biotinylated USP45
Assay type: binding

Kd: 19.3 µM
Structure (SMILES): COc1c(O)cc2oc3cc(O)c(CC=C(C)C)c(O)c3c(=O)c2c1CC=C(C)C [AMG, α-mangostin]
